Melting point and pest or weed control data for 56 compounds are collected here from US8722578B2, “Spiroheterocyclic pyrrolidinedione herbicidal compositions” (Syngenta Participations AG, priority 2008, dated 2014).

Broadly, the melting point is the temperature of the solid-liquid transition.

Series [1] deals with Alopecurus myosuroides (ALOMY). The series can be described thus: Example B post-emergence herbicidal activity, glasshouse pot test. The series is classed as in vivo. Conditions: 312 h, rate 250 g/ha, evaluated after 13 days, read-out: ALOMY post-emergence activity (100=total damage to plant; 0=no damage to plant). The method, then:
(§1) Seeds of a variety of test species are sown in standard soil in pots. After cultivation for one day (pre-emergence) or after 8 days cultivation (post-emergence) under controlled conditions in a glasshouse (at 24/16° C., day/night; 14 hours light; 65% humidity), the plants are sprayed with an aqueous spray solution derived from the formulation of the technical active ingredient in acetone/water (50:50) solution containing 0.5% Tween 20 (polyoxyethelyene sorbitan monolaurate, CAS RN 9005-64-5). The test plants are then grown in a glasshouse under controlled conditions in a glasshouse (at 24/16° C., day/night; 14 hours light; 65% humidity) and watered twice daily. After 13 days for pre and post-emergence, the test is evaluated (100=total damage to plant; 0=no damage to plant). Test Plants: Setaria faberi (SETFA), Alopecurus myosuroides (ALOMY), Echinochloa crus-galli (ECHCG), Avena fatua (AVEFA)

For series [2], the system named is Echinochloa crus-galli (ECHCG). The description is as above. The series is classed as in vivo. Conditions: 312 h, rate 250 g/ha, evaluated after 13 days, read-out: ECHCG post-emergence activity (100=total damage to plant; 0=no damage to plant). The method, then: as §1
The subject of series [3] is Avena fatua (AVEFA). Described as above. The series is classed as in vivo. Conditions: 312 h, rate 250 g/ha, evaluated after 13 days, read-out: AVEFA post-emergence activity (100=total damage to plant; 0=no damage to plant). The method, then: as §1
Series [4] relates to Setaria faberi (SETFA). The series is described as above. The series is classed as in vivo. Conditions: 312 h, rate 250 g/ha, evaluated after 13 days, read-out: SETFA post-emergence activity (100=total damage to plant; 0=no damage to plant). How it is done: as §1

Where only a bound is given, the exact number is not on record here.

Take `CCOC(=O)OC1=C(c2cc(C)ccc2C)C(=O)NC12CCN(OC)CC2` [Compound P1]: the melting point lay in the range of 170 to 173 °C. On the same count and under the same terms, with `CCCOC(=O)OC1=C(c2cc(C)ccc2C)C(=O)NC12CCN(OC)CC2` [Compound P2] the figure was 133 to 136 °C; with `CON1CCC2(CC1)NC(=O)C(c1cc(C)ccc1C)=C2OC(=O)OC(C)C` [Compound P3], 207 to 209 °C. The same measure, in the same setting: the same measure for `C=CCOC(=O)OC1=C(c2cc(C)ccc2C)C(=O)NC12CCN(OC)CC2` [Compound P4]: 140 to 142 °C; for `C=COC(=O)OC1=C(c2cc(C)ccc2C)C(=O)NC12CCN(OC)CC2` [Compound P6]: 162 to 164 °C. On the same count and under the same terms, with `CON1CCC2(CC1)NC(=O)C(c1cc(C)ccc1C)=C2OC(=O)OCC(C)(C)C` [Compound P7] the figure was 196 to 197 °C; with `C#CCOC(=O)OC1=C(c2cc(C)ccc2C)C(=O)NC12CCN(OC)CC2` [Compound P8], 151 to 153 °C. In the case of `CON1CCC2(CC1)NC(=O)C(c1cc(C)ccc1C)=C2OC(=O)C(C)(C)C` [Compound P9], the melting point is 158 to 159 °C.

`CCN(CC)C(=O)OC1=C(c2cc(C)ccc2C)C(=O)NC12CCN(OC)CC2` [Compound P10] registered a melting point of 129 to 131 °C. The same measure, in the same setting: the same measure for `COC1=C(c2cc(C)ccc2C)C(=O)NC12CCN(OC)CC2` [Compound P11]: 203 to 205 °C. As to `COCOC1=C(c2cc(C)ccc2C)C(=O)NC12CCN(OC)CC2` [Compound P12], the melting point is 183 to 185 °C. The compound `CON1CCC2(CC1)NC(=O)C(c1cc(C)ccc1C)=C2OS(=O)(=O)C(C)C` [Compound P13] gave a melting point of 168 to 170 °C.

Compound `CCOC(=O)OC1=C(c2c(Cl)cccc2Cl)C(=O)NC12CCN(OC)CC2` [Compound P17] gave a melting point of 229 to 232 °C.

In turn, `CON1CCC2(CC1)NC(=O)C(c1cc(C)ccc1C)=C2OC(C)=O` [Compound P19] gave a melting point of 233 to 236 °C. The same measure, in the same setting: the same measure for `CCC(=O)OC1=C(c2cc(C)ccc2C)C(=O)NC12CCN(OC)CC2` [Compound P20]: 202 to 204 °C; for `CCOC(=O)OC1=C(c2cc(C)ccc2C)C(=O)NC12CCN(OCC)CC2` [Compound P21]: 167 to 168 °C. As for `CCOC(=O)OC1=C(c2ccc(Cl)cc2Cl)C(=O)NC12CCN(OCC)CC2` [Compound P23], the melting point was 183 to 184 °C.

For `CCON1CCC2(CC1)NC(=O)C(c1cc(C)ccc1C)=C2OC(=O)C(C)(C)C` [Compound P24], the melting point fell in the range of 169 to 170 °C. Same read-out and setting: the same measure for `CCON1CCC2(CC1)NC(=O)C(c1ccc(Cl)cc1Cl)=C2OC(=O)C(C)(C)C` [Compound P26]: 165 to 166 °C. In the case of `CCOC(=O)OC1=C(c2cc(Br)ccc2C)C(=O)NC12CCN(OC)CC2` [Compound P27], the melting point was 205 to 209 °C. On the same count and under the same terms, with `CON1CCC2(CC1)NC(=O)C(c1cc(Br)ccc1C)=C2OC(=O)N(C)CCC#N` [Compound P28] the figure was 197 to 200 °C; with `CCOC(=O)OC1=C(c2ccc(Cl)c(Cl)c2)C(=O)NC12CCN(OC)CC2` [Compound P30], 222 to 224 °C.

As to `CCOC(=O)OC1=C(c2cc(OC)ccc2OC)C(=O)NC12CCN(OC)CC2` [Compound P31], the melting point lay within 192 to 193 °C. For `CON1CCC2(CC1)NC(=O)C(c1c(Cl)cccc1Cl)=C2OC(=O)N(C)CCC#N` [Compound P33], the melting point lay within 239 to 242 °C. The same measure, in the same setting: with `CON1CCC2(CC1)NC(=O)C(c1cc(C)ccc1C)=C2OCC#N` [Compound P35] the figure was 104 to 106 °C; with `C=CCOC1=C(c2cc(C)ccc2C)C(=O)NC12CCN(OC)CC2` [Compound P37], 173 to 174 °C; with `C#CCOC1=C(c2cc(C)ccc2C)C(=O)NC12CCN(OC)CC2` [Compound P38], 184 to 185 °C.

For `CON1CCC2(CC1)NC(=O)C(c1c(C)cc(C)cc1C)=C2OC(=O)N(C)CCC#N` [Compound P40], the melting point was in the range of 220 to 224 °C. Still for that read-out and setting: with `CON1CCC2(CC1)NC(=O)C(c1ccc(Cl)c(Cl)c1)=C2OC(=O)N(C)CCC#N` [Compound P41] the figure was 56 to 59 °C; with `COc1ccc(OC)c(C2=C(OC(=O)N(C)CCC#N)C3(CCN(OC)CC3)NC2=O)c1` [Compound P42], 187 to 189 °C. The same measure, in the same setting: with `C=CCOC(=O)OC1=C(c2cc(Br)ccc2C)C(=O)NC12CCN(OC)CC2` [Compound P45] the figure was 157 to 158 °C; with `C=CCOC(=O)OC1=C(c2ccc(Cl)c(Cl)c2)C(=O)NC12CCN(OC)CC2` [Compound P46], 210 to 213 °C; with `C=CCOC(=O)OC1=C(c2cc(OC)ccc2OC)C(=O)NC12CCN(OC)CC2` [Compound P47], 156 to 157 °C. For the compound `CCOC(=O)OC1=C(c2c(C)cc(C3CC3)cc2C)C(=O)NC12CCN(OC)CC2` [Compound P50], the melting point lay in the range of 215 to 216 °C. Still for that read-out and setting: with `CCOC(=O)OC1=C(c2cc(Br)c(C)cc2C)C(=O)NC12CCN(OC)CC2` [Compound P51] the figure was 206 to 209 °C. `CON1CCC2(CC1)NC(=O)C(c1cc(Br)c(C)cc1C)=C2OC(=O)C(C)(C)C` [Compound P52]: the melting point lay within 225 to 226 °C. In turn, `CON1CCC2(CC1)NC(=O)C(c1cc(-c3ccc(Cl)cc3)c(C)cc1C)=C2OC(=O)C(C)(C)C` [Compound P54] returned a melting point of 229 to 230 °C.

`CON1CCC2(CC1)NC(=O)C(c1c(C)cc(C3CC3)cc1C)=C2OC(=O)C(C)(C)C` [Compound P57]: the melting point was more than 200 °C.

Compound `CCOC(=O)OC1=C(c2ccc(C3CC3)cc2Cl)C(=O)NC12CCN(OC)CC2` [Compound P58] yielded a melting point of 190 to 192 °C. The same measure, in the same setting: with `CON1CCC2(CC1)NC(=O)C(c1ccc(C3CC3)cc1Cl)=C2OC(=O)C(C)(C)C` [Compound P59] the figure was 195 to 197 °C; with `CCOC(=O)OC1=C(c2ccc(C3CC3)cc2C)C(=O)NC12CCN(OC)CC2` [Compound P60], 193 to 195 °C.

Take `CON1CCC2(CC1)NC(=O)C(c1ccc(C3CC3)cc1C)=C2OC(=O)C(C)(C)C` [Compound P61]: the melting point lay in the range of 244 to 245 °C. As to `CON1CCC2(CC1)NC(=O)C(c1cc(Br)c(F)cc1C)=C2OC(=O)C(C)(C)C` [Compound P63], the melting point was in the range of 216 to 217 °C. The same measure, in the same setting: with `CON1CCC2(CC1)NC(=O)C(c1cc(-c3ccc(F)cc3)c(F)cc1C)=C2OC(=O)C(C)(C)C` [Compound P72] the figure was 101 to 104 °C; with `COCCOC1=C(c2cc(C)ccc2C)C(=O)NC12CCN(OC)CC2` [Compound P73], 161 to 164 °C.

In the case of `CCON1CCC2(CC1)NC(=O)C(c1ccc(Cl)cc1Cl)C2=O` (centres unmarked) [Compound T6], the melting point was in the range of 244 to 245 °C. Still for that read-out and setting: with `CCON1CCC2(CC1)NC(=O)C(c1cc(C)ccc1C)C2=O` (centres unmarked) [Compound T7] the figure was 166 to 167 °C. Still for that read-out and setting: with `CON1CCC2(CC1)NC(=O)C(c1cc(Br)ccc1C)C2=O` (centres unmarked) [Compound T8] the figure was 194 to 196 °C; with `CON1CCC2(CC1)NC(=O)C(c1ccc(Cl)c(Cl)c1)C2=O` (centres unmarked) [Compound T10], 239 to 242 °C.

Compound `COc1ccc(OC)c(C2C(=O)NC3(CCN(OC)CC3)C2=O)c1` (centres unmarked) [Compound T11] yielded a melting point of 194 to 196 °C. On the same count and under the same terms, with `CON1CCC2(CC1)NC(=O)C(c1c(C)cc(C3CC3)cc1C)C2=O` (centres unmarked) [Compound T13] the figure was more than 250 °C. For the compound `CON1CCC2(CC1)NC(=O)C(c1cc(C3CC3)c(C)cc1C)C2=O` (centres unmarked) [Compound T16, 3-(5-cyclopropyl-2,4-dimethyl-phenyl)-4-hydroxy-8-methoxy-1,8-diaza-spiro[4.5]dec-3-en-2-one], the pest or weed control at 250 g/ha in series [1] was 60%; in series [2], 60%; in series [3] it was 30%; in series [4], 80%. `CON1CCC2(CC1)NC(=O)C(c1ccc(C3CC3)cc1Cl)C2=O` (centres unmarked) [Compound T17] registered a melting point of 206 to 207 °C.

In turn, `CON1CCC2(CC1)NC(=O)C(c1ccc(C3CC3)cc1C)C2=O` (centres unmarked) [Compound T18] returned a melting point of 191 to 194 °C. Compound `CON1CCC2(CC1)NC(=O)C(c1cc(Br)c(F)cc1C)=C2O` [Compound T19, 3-(5-bromo-4-fluoro-2-methyl-phenyl)-4-hydroxy-8-methoxy-1,8-diaza-spiro[4.5]dec-3-en-2-one] yielded a melting point of 229 to 230 °C.

Compound `CON1CCC2(CC1)NC(=O)C(c1c(C)cc(C)c(Cl)c1C)C2=O` (centres unmarked) [Compound T20] had a melting point of more than 200 °C.
